45 compounds from US12492210B2, “Tricyclic compounds and their use” (HUTCHISON MEDIPHARMA LIMITED, priority 2019, dated 2025) can be followed below.

Some results are limits rather than exact numbers.

Assay [1] deals with p-RSK (Thr359) in colo205 cells. Description: p-RSK (Thr359) Acumen Assay in Colo205. It is filed as cell-based. The note with it: Homo sapiens, COLO 205, 1 hour compound incubation, read-out: Example 19 IC50. In a few lines: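 Colo205 cells (4000/well, seeded overnight in 10% FBS) were exposed 1 hour at 37° C to compound added from a 3–0.001 μM dilution series in 5% DMSO. Cells were then fixed, permeabilised and immunostained for p-RSK Thr359, with PI counterstain. Acumen cytometry gave the percentage of positive cells, normalised to untreated wells and 3 uM GDC0994 wells, for the IC50 fit.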

The next assay deals with T1, MAPK1(ERK2) enzyme (Homo sapiens, UniProt P28482).
T1 construct: purchased Invitrogen PV3313
Kind of assay: Z-Lyte Kinase Assay of ERK2. It is filed as biochemical. The note with it: read-out: Example 18 IC50. An outline of the steps:
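FRET-based Z-LYTE assay using ERK2 kinase with Ser/Thr3 peptide; compound tested at 0.00046–1 μM final in 2% DMSO. Kinase reaction ran 1 h at 25-30° C, followed by 1 h development. The coumarin/fluorescein emission ratio (445/520 nm) gave % phosphorylation, and IC50 was fitted from inhibition relative to uninhibited control.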

T1 sequence (P28482 whole entry): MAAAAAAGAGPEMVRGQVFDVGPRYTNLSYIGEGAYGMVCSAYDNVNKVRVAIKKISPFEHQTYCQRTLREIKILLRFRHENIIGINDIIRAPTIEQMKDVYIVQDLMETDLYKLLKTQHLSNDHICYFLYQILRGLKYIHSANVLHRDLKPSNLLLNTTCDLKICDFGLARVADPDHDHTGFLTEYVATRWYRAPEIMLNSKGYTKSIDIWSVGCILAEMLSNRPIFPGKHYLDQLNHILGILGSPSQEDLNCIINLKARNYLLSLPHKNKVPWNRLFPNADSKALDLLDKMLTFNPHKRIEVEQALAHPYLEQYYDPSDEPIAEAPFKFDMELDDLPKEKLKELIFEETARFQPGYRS

Usually IC50 stands for the concentration at which inhibition is half-maximal. For the compound `Cn1nccc1Nc1cc(-c2cc3n(c2)CCCn2c(COc4ccccc4F)nnc2-3)c(C(F)(F)F)cn1` [Compound 272], the IC50 is ≤ 100 nM in assay [1] and > 10 nM at MAPK1(ERK2) enzyme.

Consider `Fc1ccccc1OCc1nnc2n1CCCn1cc(-c3cc(NC4CC4)ncc3C(F)(F)F)cc1-2` [Compound 252], for which the IC50 in assay [1] is > 100 nM; at MAPK1(ERK2) enzyme, > 10 nM.

Regarding `Cc1cnc(Nc2ccnn2C)cc1-c1cc2n(c1)CC(C)(C)n1c-2nnc1C(F)(F)C(F)F` [Compound 234], the values for the IC50 (in assay [1]; at MAPK1(ERK2) enzyme) were > 100 nM and ≤ 5 nM, respectively.

As for `Cc1cc(Nc2ncc(C)c(-c3cc4n(c3)CCCn3c-4nnc3C3(C(F)(F)F)CCC3)n2)on1` [Compound 284], the IC50 in assay [1] is > 100 nM; on MAPK1(ERK2) enzyme, ≤ 5 nM.

Turning to `Cc1cnc(Nc2ccnn2C)cc1-c1cc2n(c1)CC1(CC1)Cn1c-2nnc1C1(C(F)(F)F)CCC1` [Compound 258], the figures for the IC50 (in assay [1]; at MAPK1(ERK2) enzyme) were ≤ 100 nM and ≤ 5 nM, respectively.

`Cn1nccc1Nc1cc(-c2cc3n(c2)C(C(F)(F)F)Cn2c-3nnc2C(F)(F)C(F)F)c(Cl)cn1` (stereo not drawn) [Compound 270]: the IC50 in assay [1] is ≤ 100 nM; at MAPK1(ERK2) enzyme it was > 10 nM.

Consider `Cn1nccc1Nc1cc(-c2cc3n(c2)CCn2c-3nnc2C2(C(F)(F)F)CCC2)c(Cl)cn1` [Compound 20], for which the IC50 is ≤ 100 nM in assay [1] and ≤ 5 nM on MAPK1(ERK2) enzyme.

`COCCn1nccc1Nc1ncc(C)c(-c2cc3n(c2)C[C@H](C)n2c-3nnc2C(F)(F)c2ccccc2F)n1` [Compound 296]: the IC50 was ≤ 100 nM in assay [1] and 5 to 10 nM at MAPK1(ERK2) enzyme.

Regarding `Cn1nccc1Nc1cc(-c2cc3n(c2)C[C@H](CF)n2c-3nnc2C(F)(F)c2ccccc2F)c(F)cn1` [Compound 145], the figures for the IC50 (in assay [1]; on MAPK1(ERK2) enzyme) were ≤ 100 nM and ≤ 5 nM, respectively.

On to `C[C@H]1Cn2cc(-c3ccnc(Nc4ccnn4C)c3)cc2-c2nnc(C(F)(F)c3ccccc3F)n21` [Compound 69], for which the results for the IC50 (in assay [1]; at MAPK1(ERK2) enzyme) were > 100 nM and ≤ 5 nM, respectively.

Turning to `Cc1cnc(Nc2ccnn2C)nc1-c1cc2n(c1)CCCn1c(COc3ccccc3F)nnc1-2` [Compound 17], the IC50 was ≤ 100 nM in assay [1] and ≤ 5 nM at MAPK1(ERK2) enzyme.

`Cc1cnc(Nc2ccnn2C)cc1-c1cc2n(c1)CC1(CC1)Cn1c-2nnc1C(F)(F)C(F)(F)F` [Compound 84]: the IC50 was > 100 nM in assay [1] and 5 to 10 nM at MAPK1(ERK2) enzyme.

As to `Cn1nccc1Nc1cc(-c2cc3n(c2)CC2(CC2)Cn2c-3nnc2C(F)(F)C(F)F)c(Cl)cn1` [Compound 93], the values for the IC50 (in assay [1]; at MAPK1(ERK2) enzyme) were ≤ 100 nM and 5 to 10 nM, respectively.

With `Cn1nccc1Nc1cc(-c2cc3n(c2)C[C@H](C(F)F)n2c-3nnc2C(F)(F)c2ccccc2F)c(F)cn1` [Compound 196], the IC50 is ≤ 100 nM in assay [1] and 5 to 10 nM at MAPK1(ERK2) enzyme.

For `Cc1cnc(Nc2ccnn2C)nc1-c1cc2n(c1)C[C@H](CF)n1c-2nnc1C(F)(F)c1ccc(F)cc1F` [Compound 188], the IC50 is ≤ 100 nM in assay [1] and 5 to 10 nM on MAPK1(ERK2) enzyme.

Regarding `Cn1nccc1Nc1cc(-c2cc3n(c2)C[C@H](Cc2ccccc2)n2c(CCC(F)(F)F)nnc2-3)c(Cl)cn1` [Compound 203], the IC50 was ≤ 100 nM in assay [1] and 5 to 10 nM on MAPK1(ERK2) enzyme.

Consider `Cn1nccc1Nc1cc(-c2cc3n(c2)CC(C)(C)n2c(CCC(F)(F)F)nnc2-3)c(Cl)cn1` [Compound 247], for which the IC50 was ≤ 100 nM in assay [1] and ≤ 5 nM at MAPK1(ERK2) enzyme.

For the compound `Cn1nccc1Nc1nccc(-c2cc3n(c2)CCCn2c(COc4ccccc4F)nnc2-3)n1` [Compound 37], the concentration for half-maximal inhibition (IC50) is ≤ 100 nM in assay [1] and ≤ 5 nM at MAPK1(ERK2) enzyme.

With `C[C@H](Oc1ccccc1F)c1nnc2c3cc(-c4ccnc(Nc5ccnn5C)n4)cn3ccn12` [Compound 39, (S)-4-(3-(1-(2-fluorophenoxy)ethyl)pyrrolo[1,2-a][1,2,4]triazolo[3,4-c]pyrazin-9-yl)-N-(1-methyl-1H-pyrazol-5-yl)pyrimidin-2-amine], the IC50 is ≤ 100 nM in assay [1] and 5 to 10 nM on MAPK1(ERK2) enzyme.

Take `Cn1nccc1Nc1cc(-c2cc3n(c2)CCCn2c(COc4ccccc4F)nnc2-3)c(F)cn1` [Compound 244]: the half-inhibitory concentration (IC50) is ≤ 100 nM in assay [1] and 5 to 10 nM at MAPK1(ERK2) enzyme.

Consider `Cc1cnc(Nc2ccnn2C)nc1-c1cc2n(c1)C[C@H](C(F)F)n1c-2nnc1C(F)(F)c1ccccc1Cl` [Compound 205], for which the values for the half-maximal inhibitory concentration (IC50) (in assay [1]; at MAPK1(ERK2) enzyme) were ≤ 100 nM and > 10 nM, respectively.

With `Cc1cnc(Nc2ccnn2C)cc1-c1cc2n(c1)C[C@H](CF)n1c-2nnc1C(F)(F)c1cc(F)cc(F)c1` [Compound 182], the IC50 was > 100 nM in assay [1] and 5 to 10 nM at MAPK1(ERK2) enzyme.

Consider `Cc1cnc(Nc2ccnn2C)nc1-c1cc2n(c1)CCCn1c-2nnc1C1(C(F)(F)F)CCCC1` [Compound 28], for which the half-inhibitory concentration (IC50) was ≤ 100 nM in assay [1] and ≤ 5 nM at MAPK1(ERK2) enzyme.

Consider `Cc1cnc(Nc2ccnn2C)nc1-c1cc2n(c1)CCn1c-2nnc1C(F)(F)c1ccccc1Cl` [Compound 94], for which the results for the IC50 (in assay [1]; at MAPK1(ERK2) enzyme) were ≤ 100 nM and ≤ 5 nM, respectively.

`Cn1nccc1Nc1cc(-c2cc3n(c2)C[C@H](CF)n2c-3nnc2C(F)(F)n2cc(F)cn2)c(Cl)cn1` [Compound 163]: the values for the concentration for half-maximal inhibition (IC50) (in assay [1]; at MAPK1(ERK2) enzyme) were ≤ 100 nM and ≤ 5 nM, respectively.

Take `CO[C@@H]1Cn2cc(-c3cc(Nc4ccnn4C)ncc3Cl)cc2-c2nnc(C3(C(F)(F)F)CCC3)n2C1` [Compound 302]: the IC50 in assay [1] is ≤ 100 nM; on MAPK1(ERK2) enzyme, ≤ 5 nM.

Turning to `Cn1nccc1Nc1cc(-c2cc3n(c2)C[C@H](CF)n2c(Cc4ccccc4F)nnc2-3)c(Cl)cn1` [Compound 92], the IC50 was ≤ 100 nM in assay [1] and 5 to 10 nM at MAPK1(ERK2) enzyme.

With `Cc1cnc(Nc2ccnn2C)cc1-c1cc2n(c1)CCn1c-2nnc1C(F)(F)c1ccccc1Cl` [Compound 90], the IC50 in assay [1] is ≤ 100 nM; on MAPK1(ERK2) enzyme, 5 to 10 nM.

As to `Cn1nccc1Nc1cc(-c2cc3n(c2)C[C@H](CF)n2c-3nnc2C(F)(F)C(F)(F)F)c(Cl)cn1` [Compound 114], the IC50 in assay [1] is > 100 nM; at MAPK1(ERK2) enzyme, ≤ 5 nM.

Take `Cn1nccc1Nc1cc(-c2cc3n(c2)CCC2(CC2)n2c(CCC(F)(F)F)nnc2-3)c(Cl)cn1` [Compound 255]: the IC50 in assay [1] is > 100 nM; on MAPK1(ERK2) enzyme, ≤ 5 nM.

For `Cn1nccc1Nc1cc(-c2cc3n(c2)C[C@H](CF)n2c-3nnc2C2(C(C)(F)F)CCC2)c(Cl)cn1` [Compound 116], the values for the IC50 (in assay [1]; on MAPK1(ERK2) enzyme) were > 100 nM and 5 to 10 nM, respectively.

`Cn1nccc1Nc1cc(-c2cc3n(c2)CC2(COC2)Cn2c-3nnc2C(F)(F)C(F)F)c(Cl)cn1` [Compound 304, 5-chloro-N-(1-methyl-1H-pyrazol-5-yl)-4-(3′-(1,1,2,2-tetrafluoroethyl)-5′H,7′H-spiro[oxetane-3,6′-pyrrolo[1,2-a][1,2,4]triazolo[3,4-c][1,4]diazepin]-10′-yl)pyridin-2-amine]: the IC50 is ≤ 100 nM in assay [1] and ≤ 5 nM at MAPK1(ERK2) enzyme.

With `Cc1cnc(NC2CC(F)(F)C2)nc1-c1cc2n(c1)CCCn1c-2nnc1C1(C(F)(F)F)CCC1` [Compound 278], the IC50 in assay [1] was > 100 nM; at MAPK1(ERK2) enzyme, ≤ 5 nM.

Take `Cc1cnc(Nc2ccnn2C)cc1-c1cc2n(c1)C[C@H](CF)n1c-2nnc1C(F)(F)c1ccc(F)cc1F` [Compound 184]: the IC50 in assay [1] is ≤ 100 nM; at MAPK1(ERK2) enzyme, 5 to 10 nM.

For the compound `C[C@H]1Cn2cc(-c3cc(Nc4ccnn4C)ncc3Cl)cc2-c2nnc(C(F)(F)n3cc(F)cn3)n21` [Compound 108], the IC50 in assay [1] was ≤ 100 nM; at MAPK1(ERK2) enzyme, ≤ 5 nM.

Turning to `Cn1nccc1Nc1cc(-c2cc3n(c2)CC(F)(F)Cn2c-3nnc2C2(C(F)(F)F)CCC2)c(Cl)cn1` [Compound 171], the figures for the IC50 (in assay [1]; at MAPK1(ERK2) enzyme) were ≤ 100 nM and > 10 nM, respectively.

As for `COC[C@H]1Cn2cc(-c3nc(Nc4ccnn4C)ncc3C)nc2-c2nnc(C(F)(F)c3ccccc3Cl)n21` [Compound 220, (R)-4-(3-((2-chlorophenyl)difluoromethyl)-5-(methoxymethyl)-5,6-dihydroimidazo[1,2-a][1,2,4]triazolo[3,4-c]pyrazin-9-yl)-5-methyl-N-(1-methyl-1H-pyrazol-5-yl)pyrimidin-2-amine], the IC50 in assay [1] was ≤ 100 nM; at MAPK1(ERK2) enzyme, ≤ 5 nM.

With `Cc1cnc(Nc2ccnn2C)nc1-c1cc2n(c1)C[C@H](C)n1c-2nnc1C(F)(F)c1cccc(F)c1` [Compound 89], the IC50 in assay [1] was ≤ 100 nM; on MAPK1(ERK2) enzyme, ≤ 5 nM.

`Cn1nccc1Nc1cc(-c2cc3n(c2)C[C@H](CF)n2c-3nnc2C(F)(F)c2ccon2)c(Cl)cn1` [Compound 112]: the half-inhibitory concentration (IC50) in assay [1] was ≤ 100 nM; at MAPK1(ERK2) enzyme, 5 to 10 nM.

For the compound `C[C@H]1Cn2cc(-c3cc(Nc4ccnn4C)ncc3Cl)cc2-c2nnc(C(F)(F)c3ccccc3Cl)n21` [Compound 178], the IC50 in assay [1] is ≤ 100 nM; on MAPK1(ERK2) enzyme, > 10 nM.

As to `Cc1cnc(Nc2ccnn2C)cc1-c1cc2n(c1)CC(C)Cn1c-2nnc1C(F)(F)C(F)F` (stereo not drawn) [Compound 60], the IC50 is ≤ 100 nM in assay [1] and ≤ 5 nM at MAPK1(ERK2) enzyme.

Regarding `Cn1nccc1Nc1cc(-c2cc3n(c2)CCCn2c-3nnc2N2CCCc3ccccc32)c(Cl)cn1` [Compound 54], the IC50 in assay [1] is ≤ 100 nM; at MAPK1(ERK2) enzyme, 5 to 10 nM.

As to `Cc1cnc(Nc2ccnn2C)nc1-c1cc2n(c1)C[C@H](C(F)F)n1c-2nnc1C(F)(F)c1ccccc1F` [Compound 186], the IC50 was ≤ 100 nM in assay [1] and 5 to 10 nM on MAPK1(ERK2) enzyme.

Consider `CCn1nccc1Nc1ncc(C)c(-c2cc3n(c2)C[C@H](C)n2c-3nnc2C(F)(F)c2ccccc2F)n1` [Compound 289], for which the IC50 is ≤ 100 nM in assay [1] and > 10 nM at MAPK1(ERK2) enzyme.

Regarding `Cc1c(-c2ccnc(Nc3ccnn3C)n2)cn2c1-c1nnc(C3(C(F)(F)F)CCC3)n1CCC2` [Compound 13], the IC50 was > 100 nM in assay [1] and ≤ 5 nM at MAPK1(ERK2) enzyme.
